We go through three molecules from patent publication US20020155496A1, “Saturated and unsaturated abietane derivatives, derived conjugates and uses in a diagnostic composition, a reagent and a device” (priority 1998, published 2002).

The experiment has as its system anti-abietic acid antibody. Description: Competition ELISA assay with natural hormones (crossreaction of anti-abietic acid antibody). Format: binding, mouse. To be noted: for inhibition / crossreaction in competition ELISA: increasing concentrations of hormone in 5 μg/ml anti-abietic acid antibody, abietic acid-ODN antigen phase, read at 492 nm. As for the experimental part: The antigen phase was obtained as described in Example 11, and then increasing concentrations of hormone dissolved in a 5 μg/ml solution of anti-abietic acid antibody in PBS-Tween containing 10% by volume of horse serum are incubated for one hour at 37° C. After washes with PBS-Tween, an anti-mouse antibody antibody coupled to peroxidase, in solution in PBS-Tween-horse [lacuna] is incubated for one hour at 37° C. After washes, the enzymatic substrate, o-phenylenediamine, is added. The colorimetric reaction is stopped by adding 1N sulfuric acid. The intensity of the coloration is read at 492 nm on a bioMérieux Axia Micro-reader.

Turning to `C[C@]12CC[C@H]3[C@@H](CCC4=CC(=O)CC[C@@]43C)[C@@H]1CC[C@@H]2O` [testosterone], the “inhibition / crossreaction in competition ELISA” value (shortened to “inhibition / crossreaction”) is reported as “no inhibition”.

Turning to `CC(=O)[C@H]1CC[C@H]2[C@@H]3CCC4=CC(=O)CC[C@]4(C)[C@H]3CC[C@]12C` [progesterone], the “inhibition / crossreaction” value was “no inhibition”.

As to `N[C@@H](Cc1cc(I)c(Oc2cc(I)c(O)c(I)c2)c(I)c1)C(=O)O` [Example T4], the “inhibition / crossreaction” value is “crossreaction is observed”. Further, the inhibition (concentration of 0.33 μmol/ml of hormone) came to 25%.
